Results from US6348476B1, “Pharmaceutical combination preparation of an inhibitor of the sodium/hydrogen exchanger and a medicament for the treatment of cardiovascular diseases” (Aventis Pharma Deutschland GmbH, priority 1997, dated 2002).

Tested on: experimental cardiac infarct in rats
Assay: experimental cardiac infarct in rats: coronary artery closed for one hour, reperfused for two hours, size of infarct determined
Type: in vivo
Conditions: % of the risk area, mean±S.E.M., control 63.4±4.3%
Protocol: Male rats having a body weight of 280 to 410 g were classed into four groups and anaesthetized. The thorax was opened close to the sternum, a silk thread (Ethicon^R; 1.0 metric, 5-0) was placed around left coronary artery and the two loose ends of the thread were pulled through a small plastic tube.
For administration of substance, a catheter was placed into the left jugular vein. The systemic blood pressure was recorded in the left carotid artery using a pressure recorder (Combitrans^R, B. Braun Melsungen AG) and the ECG was registered using subcutaneous electrodes. After digital conversion, the data were registered in a computer and the ECG was evaluated in accordance with the guidelines of the Lambeth Convention (6. Walker M J A, Curtis M J, Hearse D J, Campbell R W F, Janse M J, Yellon D M, Cobbe S M, Cokes S J, Harness J B, Harron D W G, Higgins S J, Julian D G, Lab M J, Manning A S, Northover B J, Parraft J R, Riemersma R A, Rieva E, Russell D G, Sheridan D J, Winslow E, Woodward B: The Lambeth convention: Guidelines for the study of arrhythmias in ischemia, infarction and reperfusion. Cardiovasx. Res 1988; 22: 447-455).
Hoe 642 was dissolved in doubly distilled water and R56865 in tartaric acid (0.6%), dilution was carried out using doubly distilled water, and 4% of mannitol were added. […]

SMILES | size of infarct (10 mg/kg of body weight of Hoe 642 intravenously 5 min before occlusion, n=7) | size of infarct (3 mg/kg of body weight of R56865 intravenously 5 min before occlusion, n=8)
CC(C)c1ccc(C(=O)N=C(N)N)cc1S(C)(=O)=O.CS(=O)(=O)O [Hoe 642, cariporide] | 33.2±3.7% | –
CN(c1nc2ccccc2s1)C1CCN(CCCCOc2ccc(F)cc2)CC1 [R56865, N-[1-[4-(4-fluorophenoxy)butyl]-4-piperdinyl]-N-methyl-2-benzothiazolamine] | – | 38.9±3.1%
